Reference: ChEMBL document CHEMBL1649541, “Molecular basis and phenotype of methicillin resistance in Staphylococcus aureus and insights into new beta-lactams that meet the challenge” (Antimicrob Agents Chemother, 2009)
In brackets after ≈: the same amount, converted by molar mass.

Experiments:
MecA [1] = target: T1, MecA (Staphylococcus aureus, UniProt Q7DHH4); assay: Binding affinity to methicillin-resistant Staphylococcus aureus MF535HR PBP 2a by competitive binding assay
T1 sequence (Q7DHH4 whole entry): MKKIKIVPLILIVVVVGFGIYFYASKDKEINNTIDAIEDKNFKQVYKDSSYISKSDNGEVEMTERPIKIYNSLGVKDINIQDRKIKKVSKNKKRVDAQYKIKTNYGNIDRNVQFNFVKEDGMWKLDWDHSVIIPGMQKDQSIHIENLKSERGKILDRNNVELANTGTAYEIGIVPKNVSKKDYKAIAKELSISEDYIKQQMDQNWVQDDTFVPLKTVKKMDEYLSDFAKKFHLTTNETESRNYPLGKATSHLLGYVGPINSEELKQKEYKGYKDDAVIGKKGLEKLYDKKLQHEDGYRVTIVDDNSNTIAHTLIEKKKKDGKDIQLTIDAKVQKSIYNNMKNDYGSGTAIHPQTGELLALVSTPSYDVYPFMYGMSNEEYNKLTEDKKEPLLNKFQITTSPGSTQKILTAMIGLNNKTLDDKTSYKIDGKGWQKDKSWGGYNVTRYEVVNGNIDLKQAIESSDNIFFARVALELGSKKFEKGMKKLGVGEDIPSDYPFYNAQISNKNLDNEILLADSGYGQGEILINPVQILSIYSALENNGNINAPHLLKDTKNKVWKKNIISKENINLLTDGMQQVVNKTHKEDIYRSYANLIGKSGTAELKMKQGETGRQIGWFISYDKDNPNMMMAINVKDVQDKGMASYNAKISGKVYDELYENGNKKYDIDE

Staphylococcus aureus [2] = assay: Antimicrobial activity against daptomycin-nonsusceptible Staphylococcus aureus; type: functional
Staphylococcus aureus [3] = assay: Antimicrobial activity against vancomycin-resistant Staphylococcus aureus; type: functional
Staphylococcus aureus [4] = assay: Antimicrobial activity against community-acquired Staphylococcus aureus; type: functional
[5] = target: T2, Penicillin-binding protein 4 (Staphylococcus aureus, UniProt P72355); assay: Binding affinity to methicillin-susceptible Staphylococcus aureus PBP 4
T2 sequence (P72355 whole entry): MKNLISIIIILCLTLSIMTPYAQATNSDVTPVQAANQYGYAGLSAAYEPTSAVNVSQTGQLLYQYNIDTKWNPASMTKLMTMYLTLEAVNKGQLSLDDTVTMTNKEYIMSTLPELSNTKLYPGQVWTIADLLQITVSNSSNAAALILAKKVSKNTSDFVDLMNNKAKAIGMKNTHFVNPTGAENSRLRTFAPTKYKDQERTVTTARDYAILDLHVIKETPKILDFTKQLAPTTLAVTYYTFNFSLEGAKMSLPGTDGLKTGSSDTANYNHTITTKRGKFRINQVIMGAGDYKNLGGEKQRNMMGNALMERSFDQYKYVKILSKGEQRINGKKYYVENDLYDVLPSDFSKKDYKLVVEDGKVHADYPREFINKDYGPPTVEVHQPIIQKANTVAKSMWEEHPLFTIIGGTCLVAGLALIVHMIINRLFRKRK

[6] = target: T3, Penicillin-binding protein 2b (Staphylococcus aureus, UniProt Q9XDB3); assay: Binding affinity to methicillin-susceptible Staphylococcus aureus PBP 3
T3 sequence (Q9XDB3 whole entry): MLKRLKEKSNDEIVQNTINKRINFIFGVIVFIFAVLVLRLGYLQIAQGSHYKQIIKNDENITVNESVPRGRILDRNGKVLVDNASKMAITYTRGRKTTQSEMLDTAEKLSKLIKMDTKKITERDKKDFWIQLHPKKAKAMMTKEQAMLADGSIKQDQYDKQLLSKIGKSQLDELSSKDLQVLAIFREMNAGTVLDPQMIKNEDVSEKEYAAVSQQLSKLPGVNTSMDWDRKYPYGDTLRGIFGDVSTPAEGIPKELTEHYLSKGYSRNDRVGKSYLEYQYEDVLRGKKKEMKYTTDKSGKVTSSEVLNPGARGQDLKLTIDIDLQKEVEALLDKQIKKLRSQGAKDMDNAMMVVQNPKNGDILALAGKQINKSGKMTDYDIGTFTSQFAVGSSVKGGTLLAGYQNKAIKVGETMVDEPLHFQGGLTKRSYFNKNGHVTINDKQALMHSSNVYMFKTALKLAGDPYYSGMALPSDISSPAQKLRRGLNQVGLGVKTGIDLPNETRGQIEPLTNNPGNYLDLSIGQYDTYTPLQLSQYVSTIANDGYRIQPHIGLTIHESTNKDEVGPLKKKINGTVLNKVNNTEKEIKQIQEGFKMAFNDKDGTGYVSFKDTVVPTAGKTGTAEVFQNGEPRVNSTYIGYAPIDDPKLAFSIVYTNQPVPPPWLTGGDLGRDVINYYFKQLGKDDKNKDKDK

[7] = target: T4, Penicillin-binding protein 2 (Staphylococcus aureus, UniProt Q53729); assay: Binding affinity to methicillin-susceptible Staphylococcus aureus PBP 2
T4 sequence (Q53729 whole entry): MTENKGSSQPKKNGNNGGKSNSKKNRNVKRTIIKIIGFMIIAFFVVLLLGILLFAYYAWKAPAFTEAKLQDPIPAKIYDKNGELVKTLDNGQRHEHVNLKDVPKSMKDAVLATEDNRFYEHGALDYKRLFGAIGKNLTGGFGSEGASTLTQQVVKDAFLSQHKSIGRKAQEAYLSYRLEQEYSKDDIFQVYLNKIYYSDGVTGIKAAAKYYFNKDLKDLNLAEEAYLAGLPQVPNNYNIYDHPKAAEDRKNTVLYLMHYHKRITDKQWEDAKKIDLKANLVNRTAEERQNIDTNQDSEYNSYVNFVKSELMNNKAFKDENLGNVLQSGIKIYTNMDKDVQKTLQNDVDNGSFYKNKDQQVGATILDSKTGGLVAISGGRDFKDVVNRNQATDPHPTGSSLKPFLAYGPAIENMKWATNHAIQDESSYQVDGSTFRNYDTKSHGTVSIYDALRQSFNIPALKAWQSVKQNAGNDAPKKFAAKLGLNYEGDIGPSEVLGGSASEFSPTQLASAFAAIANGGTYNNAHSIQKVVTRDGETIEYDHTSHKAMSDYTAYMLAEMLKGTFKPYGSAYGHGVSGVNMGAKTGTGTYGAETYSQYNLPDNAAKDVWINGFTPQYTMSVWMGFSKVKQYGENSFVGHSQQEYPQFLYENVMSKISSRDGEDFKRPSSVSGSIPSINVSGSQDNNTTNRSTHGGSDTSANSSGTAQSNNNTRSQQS

Staphylococcus aureus [8] = assay: Antimicrobial activity against methicillin-resistant Staphylococcus aureus ATCC 29213 by CLSI method; type: functional
Staphylococcus aureus [9] = assay: Antimicrobial activity against vancomycin-intermediate Staphylococcus aureus; type: functional
MecA [10] = target: T1, MecA; assay: Inhibition of methicillin-resistant Staphylococcus aureus PBP 2a
[11] = target: T5, Penicillin-binding protein 1 (Staphylococcus aureus, UniProt Q53725); assay: Binding affinity to methicillin-susceptible Staphylococcus aureus PBP 1
T5 sequence (Q53725 whole entry): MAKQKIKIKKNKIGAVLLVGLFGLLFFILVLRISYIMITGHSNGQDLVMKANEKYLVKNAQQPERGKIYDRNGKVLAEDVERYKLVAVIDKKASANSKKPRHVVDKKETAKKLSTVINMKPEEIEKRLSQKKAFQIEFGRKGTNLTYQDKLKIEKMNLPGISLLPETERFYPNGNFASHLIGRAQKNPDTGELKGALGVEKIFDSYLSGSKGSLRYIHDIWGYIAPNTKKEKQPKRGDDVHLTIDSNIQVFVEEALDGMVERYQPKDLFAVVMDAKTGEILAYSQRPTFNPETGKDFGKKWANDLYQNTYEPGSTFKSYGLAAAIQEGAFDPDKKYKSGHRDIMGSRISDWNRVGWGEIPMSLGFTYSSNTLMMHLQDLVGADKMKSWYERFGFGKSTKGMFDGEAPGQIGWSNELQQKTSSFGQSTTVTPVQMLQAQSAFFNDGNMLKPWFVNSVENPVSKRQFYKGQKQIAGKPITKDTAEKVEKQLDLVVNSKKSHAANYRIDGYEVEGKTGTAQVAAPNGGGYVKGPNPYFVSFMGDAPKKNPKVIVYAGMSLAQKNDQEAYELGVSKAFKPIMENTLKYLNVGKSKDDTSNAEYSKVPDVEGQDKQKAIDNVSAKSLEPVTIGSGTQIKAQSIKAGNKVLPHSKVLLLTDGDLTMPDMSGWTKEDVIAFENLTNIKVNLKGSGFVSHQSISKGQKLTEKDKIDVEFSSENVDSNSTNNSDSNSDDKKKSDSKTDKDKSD

Staphylococcus aureus [12] = assay: Antimicrobial activity against methicillin-susceptible Staphylococcus aureus ATCC 29213 by M7-A7 dilution method; type: functional
[13] = target: T4, Penicillin-binding protein 2; assay: Inhibition of methicillin-susceptible Staphylococcus aureus ATCC 29213 PBP 2
Staphylococcus aureus [14] = assay: Antimicrobial activity against methicillin-resistant Staphylococcus aureus infected in patient with complicated skin and skin structure infection assessed as cure rate at 500 mg/kg, iv administered every 12 hrs; type: functional
[15] = target: T5, Penicillin-binding protein 1; assay: Inhibition of methicillin-susceptible Staphylococcus aureus ATCC 29213 PBP 1
[16] = target: T3, Penicillin-binding protein 2b; assay: Inhibition of methicillin-susceptible Staphylococcus aureus ATCC 29213 PBP 3
MecA [17] = target: T1, MecA; assay: Inhibition of methicillin-resistant Staphylococcus aureus OC 3726 PBP 2a
Staphylococcus aureus [18] = assay: Antimicrobial activity against methicillin-resistant Staphylococcus aureus infected in patient with complicated skin and skin structure infection assessed as cure rate at 1 g/kg, iv administered every 12 hrs; type: functional
[19] = target: T2, Penicillin-binding protein 4; assay: Inhibition of methicillin-susceptible Staphylococcus aureus ATCC 29213 PBP 4
Staphylococcus aureus [20] = assay: Antimicrobial activity against methicillin-resistant Staphylococcus aureus in mouse systemic infection model; type: functional
Staphylococcus aureus [21] = assay: Antimicrobial activity against methicillin-resistant Staphylococcus aureus; type: functional
Staphylococcus aureus [22] = assay: Bactericidal activity against methicillin-resistant Staphylococcus aureus; type: functional
Staphylococcus aureus [23] = assay: Ratio of MBC to MIC for methicillin-resistant Staphylococcus aureus; type: functional

C[C@@H](O)[C@H]1C(=O)N2C(C(=O)[O-])=C(c3cn4cnc(C(=O)c5ccc[n+](CC(N)=O)c5)c4s3)[C@H](C)[C@H]12
IC50 (MecA [1]): 262 nM

CCO/N=C(\C(=O)N[C@@H]1C(=O)N2C(C(=O)[O-])=C(Sc3nc(-c4cc[n+](C)cc4)cs3)CS[C@H]12)c1nsc(NP(=O)(O)O)n1 [CEFTAROLINE FOSAMIL]
MIC (Staphylococcus aureus [2]): 0.5 µg/mL (≈ 0.73 µM) | MIC (Staphylococcus aureus [3]): 0.12 µg/mL (≈ 0.175 µM) | MIC90 (Staphylococcus aureus [4]): 1 µg/mL (≈ 1.46 µM) | IC50 [5]: > 1460 nM | IC50 [6]: 71.6 nM | IC50 [7]: 49.7 nM | MIC (Staphylococcus aureus [8]): 0.25 µg/mL (≈ 0.365 µM) | MIC90 (Staphylococcus aureus [9]): 1 µg/mL (≈ 1.46 µM) | IC50 (MecA [10]): 234 nM | IC50 [11]: 146 nM

CC(C)(O/N=C(\C(=O)N[C@@H]1C(=O)N2C(C(=O)[O-])=C(C[n+]3ccccc3)CS[C@H]12)c1csc(N)n1)C(=O)O [CEFTAZIDIME]
MIC (Staphylococcus aureus [12]): > 128 µg/mL

Cc1oc(=O)oc1COC(=O)N1CC[C@@H](N2CC/C(=C\C3=C(C(=O)O)N4C(=O)[C@@H](NC(=O)/C(=N/O)c5nsc(N)n5)[C@H]4SC3)C2=O)C1 [CEFTOBIPROLE MEDOCARIL FREE ACID]
IC50 [13]: 724 nM | Activity (Staphylococcus aureus [14]): 92% | MIC (Staphylococcus aureus [12]): 2 µg/mL (≈ 2.9 µM) | IC50 [15]: 145 nM | IC50 [16]: 72.4 nM | IC50 (MecA [17]): 1300 nM | Activity (Staphylococcus aureus [18]): 90% | IC50 [19]: 1450 nM

CO/N=C(\C(=O)N[C@@H]1C(=O)N2C(C(=O)O)=C(CSc3nc(=O)c(O)nn3C)CS[C@H]12)c1csc(N)n1 [CEFTRIAXONE]
MIC (Staphylococcus aureus [12]): > 64 µg/mL

CC(=O)NC[C@H]1CN(c2ccc(N3CCOCC3)c(F)c2)C(=O)O1 [LINEZOLID]
ED50 (Staphylococcus aureus [20]): 7.4 mg/kg

C[C@H]1C=C(c2csc(SC3=C(C(=O)O)N4C(=O)[C@H]([C@@H](C)O)[C@H]4[C@H]3C)n2)CN1 [RAZUPENEM]
ED50 (Staphylococcus aureus [20]): 4.7 mg/kg | MIC90 (Staphylococcus aureus [21]): 2 µg/mL (≈ 4.91 µM) | MBC (Staphylococcus aureus [22]): 0.5 µg/mL (≈ 1.23 µM) | Ratio (Staphylococcus aureus [23]): 1

CN[C@H](CC(C)C)C(=O)N[C@H]1C(=O)N[C@@H](CC(N)=O)C(=O)N[C@H]2C(=O)N[C@H]3C(=O)N[C@H](C(=O)N[C@H](C(=O)O)c4cc(O)cc(O)c4-c4cc3ccc4O)[C@H](O)c3ccc(c(Cl)c3)Oc3cc2cc(c3O[C@@H]2O[C@H](CO)[C@@H](O)[C@H](O)[C@H]2O[C@H]2C[C@](C)(N)[C@H](O)[C@H](C)O2)Oc2ccc(cc2Cl)[C@H]1O [VANCOMYCIN]
ED50 (Staphylococcus aureus [20]): 6 mg/kg
